Activity calls are given as the source filed them. The rule behind the calls is not given here.
How the values were obtained:
[1] = target: T1, Prostaglandin G/H synthase 2 (Homo sapiens, UniProt P35354); test: Binding affinity to COX2 (unknown origin)
T1 sequence (P35354 whole entry): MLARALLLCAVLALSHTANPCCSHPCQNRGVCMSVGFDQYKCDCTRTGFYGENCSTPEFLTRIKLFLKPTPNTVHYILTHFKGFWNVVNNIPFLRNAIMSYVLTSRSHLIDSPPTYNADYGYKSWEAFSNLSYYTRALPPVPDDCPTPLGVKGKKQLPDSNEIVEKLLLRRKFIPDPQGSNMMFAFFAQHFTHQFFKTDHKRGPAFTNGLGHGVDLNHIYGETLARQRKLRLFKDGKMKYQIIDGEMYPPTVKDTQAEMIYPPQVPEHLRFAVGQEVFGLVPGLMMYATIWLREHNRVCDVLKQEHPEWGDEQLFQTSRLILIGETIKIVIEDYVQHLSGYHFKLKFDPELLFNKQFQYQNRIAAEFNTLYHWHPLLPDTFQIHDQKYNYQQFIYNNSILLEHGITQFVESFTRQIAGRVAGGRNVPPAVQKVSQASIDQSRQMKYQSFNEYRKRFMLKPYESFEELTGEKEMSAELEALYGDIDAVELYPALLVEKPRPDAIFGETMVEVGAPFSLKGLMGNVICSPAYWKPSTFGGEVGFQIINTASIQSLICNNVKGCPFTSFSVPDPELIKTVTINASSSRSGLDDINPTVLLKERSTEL

[2] = target: T2, Prostaglandin G/H synthase 1 (Homo sapiens, UniProt P23219); test: Binding affinity to COX1 (unknown origin)
T2 sequence (P23219 whole entry): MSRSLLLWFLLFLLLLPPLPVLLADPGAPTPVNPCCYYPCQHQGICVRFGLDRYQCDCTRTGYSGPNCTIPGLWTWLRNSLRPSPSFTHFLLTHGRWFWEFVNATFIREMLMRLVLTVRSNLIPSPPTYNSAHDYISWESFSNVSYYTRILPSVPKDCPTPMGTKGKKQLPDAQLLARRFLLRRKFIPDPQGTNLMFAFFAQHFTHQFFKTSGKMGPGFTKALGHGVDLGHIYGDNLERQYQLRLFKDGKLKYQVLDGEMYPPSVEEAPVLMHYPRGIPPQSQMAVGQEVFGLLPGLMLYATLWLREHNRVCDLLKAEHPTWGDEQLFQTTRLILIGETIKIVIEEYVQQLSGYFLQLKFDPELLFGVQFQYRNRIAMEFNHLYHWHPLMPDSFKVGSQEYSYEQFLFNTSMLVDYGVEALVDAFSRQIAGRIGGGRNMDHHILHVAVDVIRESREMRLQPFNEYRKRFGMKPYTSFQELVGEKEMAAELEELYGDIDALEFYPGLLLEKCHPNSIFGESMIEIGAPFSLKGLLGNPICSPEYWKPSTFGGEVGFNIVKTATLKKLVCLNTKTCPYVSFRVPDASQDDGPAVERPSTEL

Rattus norvegicus [3] = test: Anti-inflammatory activity in Rattus norvegicus Wistar (rat) assessed as decrease in cotton pellet-induced final granuloma weight at 10 mg/kg, po administered for 7 days measured on day 8; type: functional, organism-based; design: dose 10 mg/kg
Rattus norvegicus [4] = test: Anti-inflammatory activity in Rattus norvegicus Wistar (rat) assessed as inhibition of carrageenan-induced paw edema at 10 mg/kg administered for 1 hr followed by carrageenan challenge measured at 4 hr relative to control; type: functional
Rattus norvegicus [5] = test: Anti-inflammatory activity in Rattus norvegicus Wistar (rat) assessed as inhibition of carrageenan-induced paw edema at 10 mg/kg administered for 1 hr followed by carrageenan challenge measured at 1 hr relative to control; type: functional
Rattus norvegicus [6] = test: Anti-inflammatory activity in Rattus norvegicus Wistar (rat) assessed as decrease in cotton pellet-induced wet granuloma weight at 10 mg/kg, po administered for 7 days measured on day 8; type: functional, organism-based; design: dose 10 mg/kg
Rattus norvegicus [7] = test: Anti-inflammatory activity in Rattus norvegicus Wistar (rat) assessed as inhibition of carrageenan-induced paw edema at 10 mg/kg administered for 1 hr followed by carrageenan challenge measured at 3 hr relative to control; type: functional
[8] = target: T2, Prostaglandin G/H synthase 1; test: Inhibition of COX1 (unknown origin) at 1 uM
Rattus norvegicus [9] = test: Anti-inflammatory activity in Rattus norvegicus Wistar (rat) assessed as decrease in cotton pellet-induced dry granuloma weight at 10 mg/kg, po administered for 7 days measured on day 8; type: functional, organism-based; design: dose 10 mg/kg
Rattus norvegicus [10] = test: Anti-inflammatory activity in Rattus norvegicus Wistar (rat) assessed as inhibition of carrageenan-induced paw edema at 10 mg/kg administered for 1 hr followed by carrageenan challenge measured at 2 hr relative to control; type: functional
Rattus norvegicus [11] = species on record: Rattus norvegicus; test: Toxicity in Rattus norvegicus Wistar (rat); type: organism-based; conditions: in vivo
Rattus norvegicus [12] = test: Anti-inflammatory activity in Rattus norvegicus Wistar (rat) assessed as inhibition of carrageenan-induced paw edema administered for 1 hr followed by carrageenan challenge measured at 3 hr relative to control; type: functional
Rattus norvegicus [13] = test: Anti-inflammatory activity in Rattus norvegicus Wistar (rat) assessed as cotton pellet-induced final granuloma weight at 5 mg/kg, po administered for 7 days measured on day 8 (reference value: 110.3 +/- 8.7 mg); type: functional
Rattus norvegicus [14] = test: Toxicity in Rattus norvegicus Wistar (rat) assessed as mortality at 5 mg/kg, po administered for 7 days measured on day 8; type: organism-based; design: dose 5 mg/kg, route oral; conditions: in vivo, 168 h
Rattus norvegicus [15] = test: Gastrointestinal toxicity in Rattus norvegicus Wistar (rat) stomach assessed as appearance of redness at 5 mg/kg, po relative to vehicle-treated control; type: organism-based; design: dose 5 mg/kg, route oral; conditions: in vivo
Rattus norvegicus [16] = test: Anti-inflammatory activity in Rattus norvegicus Wistar (rat) assessed as inhibition of carrageenan-induced paw edema administered for 1 hr followed by carrageenan challenge measured at 2 hr relative to control; type: functional
Rattus norvegicus [17] = test: Ulcerogenic activity in Rattus norvegicus Wistar (rat) stomach at 5 mg/kg, po relative to vehicle-treated control; type: toxicity, organism-based; design: dose 5 mg/kg, route oral; conditions: in vivo
Rattus norvegicus [18] = test: Gastrointestinal toxicity in Rattus norvegicus Wistar (rat) duodenum assessed as appearance of redness at 5 mg/kg, po relative to vehicle-treated control; type: organism-based; design: dose 5 mg/kg, route oral; conditions: in vivo
Rattus norvegicus [19] = test: Anti-inflammatory activity in Rattus norvegicus Wistar (rat) assessed as inhibition of carrageenan-induced paw edema administered for 1 hr followed by carrageenan challenge measured at 4 hr relative to control; type: functional
Rattus norvegicus [20] = test: Anti-inflammatory activity in Rattus norvegicus Wistar (rat) assessed as inhibition of carrageenan-induced paw edema administered for 1 hr followed by carrageenan challenge measured at 1 hr relative to control; type: functional
[21] = target: T2, Prostaglandin G/H synthase 1; test: Inhibition of COX1 (unknown origin)
Rattus norvegicus [22] = test: Gastrointestinal toxicity in Rattus norvegicus Wistar (rat) stomach assessed as appearance of redness at 10 mg/kg, po relative to vehicle-treated control; type: organism-based; design: dose 10 mg/kg, route oral; conditions: in vivo
Rattus norvegicus [23] = test: Anti-inflammatory activity in Rattus norvegicus Wistar (rat) assessed as cotton pellet-induced final granuloma weight at 10 mg/kg, po administered for 7 days measured on day 8 (reference value: 110.3 +/- 8.7 mg); type: functional
Rattus norvegicus [24] = test: Ulcerogenic activity in Rattus norvegicus Wistar (rat) stomach at 10 mg/kg, po relative to vehicle-treated control; type: toxicity, organism-based; design: dose 10 mg/kg, route oral; conditions: in vivo
Rattus norvegicus [25] = test: Gastrointestinal toxicity in Rattus norvegicus Wistar (rat) duodenum assessed as appearance of redness at 10 mg/kg, po relative to vehicle-treated control; type: organism-based; design: dose 10 mg/kg, route oral; conditions: in vivo
[26] = target: T3, Prostaglandin G/H synthase 2 (Homo sapiens) (UniProt P35354); test: Inhibition of COX2 (unknown origin) at 10 uM
T3 sequence (whole entry): T1 sequence (P35354 whole entry)

`CC(C(=O)O)c1ccc(-c2cn3ccccc3n2)cc1` (stereo unspecified) [MIROPROFEN] showed a Kd [1] of 48.1 nM and a Kd [2] of 185 nM.
In the case of `O=C(O)c1cn2ccccc2n1`, the Activity (Rattus norvegicus [3]) is reported as “Active”, the inhibition in vivo at 10 mg/kg (Rattus norvegicus [4]) is reported as 74% and the Kd [1] is reported as 652 nM. The inhibition in vivo at 10 mg/kg (Rattus norvegicus [5]) was 75.6%, the Kd [2] was 1540 nM and the Activity (Rattus norvegicus [6]) was “Active”. The inhibition in vivo at 10 mg/kg (Rattus norvegicus [7]) was 69.4%, the inhibition [8] was 15.6% and the Activity (Rattus norvegicus [9]) was “Active”. For the same molecule, the inhibition in vivo at 10 mg/kg (Rattus norvegicus [10]) was 62.5% and the LD (Rattus norvegicus [11]) was 1000 mg/kg.
For `COc1ccc2c(c1)c(CC(=O)O)c(C)n2C(=O)c1ccc(Cl)cc1` [INDOMETHACIN], the “inhibition (INH)” value (Rattus norvegicus [12]) was 77.3%, the Activity (Rattus norvegicus [13]) was 42.3 mg and the Activity (Rattus norvegicus [14]) was “Toxic”. For the same molecule, the Activity (Rattus norvegicus [15]) was “Toxic”, the “inhibition (INH)” value (Rattus norvegicus [16]) was 65.5% and the Activity (Rattus norvegicus [17]) was “Toxic”. The Activity (Rattus norvegicus [18]) was “Toxic”, the “inhibition (INH)” value (Rattus norvegicus [19]) was 74.6% and the “inhibition (INH)” value (Rattus norvegicus [20]) was 62.6%.
In the case of `O=C(O)c1nc2ccccn2c1[N+](=O)[O-]`, the Activity (Rattus norvegicus [3]) is reported as “Active”, the inhibition in vivo at 10 mg/kg (Rattus norvegicus [4]) is reported as 14.2% and the Kd [1] is reported as 50.1 nM. For the same molecule, the inhibition in vivo at 10 mg/kg (Rattus norvegicus [5]) was 57.2%, the Kd [2] was 15.6 nM and the Activity (Rattus norvegicus [6]) was “Active”. The inhibition in vivo at 10 mg/kg (Rattus norvegicus [7]) was 24.4%, the inhibition [21] was “inactive” and the Activity (Rattus norvegicus [9]) was “Active”. For the same molecule, the inhibition in vivo at 10 mg/kg (Rattus norvegicus [10]) was 43.5% and the LD (Rattus norvegicus [11]) was 1000 mg/kg.
`CCOC(=O)c1nc2ccccn2c1[N+](=O)[O-]` was tested, and the inhibition in vivo at 10 mg/kg (Rattus norvegicus [4]) was 14.2%, the Kd [1] was 227 nM and the inhibition in vivo at 10 mg/kg (Rattus norvegicus [5]) was 54.2%. The Kd [2] was 1040 nM, the inhibition in vivo at 10 mg/kg (Rattus norvegicus [7]) was 25.4% and the inhibition [21] was “inactive”. For the same molecule, the inhibition in vivo at 10 mg/kg (Rattus norvegicus [10]) was 43.1% and the LD (Rattus norvegicus [11]) was 1000 mg/kg.
Molecule `Nc1c(C(=O)O)nc2ccccn12` has an inhibition in vivo at 10 mg/kg (Rattus norvegicus [4]) of 73.2%, a Kd [1] of 448 nM and an inhibition in vivo at 10 mg/kg (Rattus norvegicus [5]) of 61.3%. For the same molecule, the Activity (Rattus norvegicus [22]) was “Non-toxic”, the Activity (Rattus norvegicus [23]) was 70.5 mg and the Activity (Rattus norvegicus [24]) was “Non-toxic”. The Kd [2] was 262 nM, the Activity (Rattus norvegicus [25]) was “Non-toxic” and the Activity (Rattus norvegicus [6]) was “Active”. For the same molecule, the inhibition in vivo at 10 mg/kg (Rattus norvegicus [7]) was 80.3%, the inhibition [21] was “inactive” and the inhibition [26] was 20%. The Activity (Rattus norvegicus [9]) was “Active”, the inhibition in vivo at 10 mg/kg (Rattus norvegicus [10]) was 76.7% and the LD (Rattus norvegicus [11]) was 1000 mg/kg.
